Like-named read-outs stand apart in the source and are kept apart here. Blank lines part the entries; values can stand above or below the compound they belong to.
Molecular target: CFTR (Homo sapiens, UniProt P13569)
Assay: Membrane potential dye, Enteroid Assay B
Assay type: cell-based
Details: for Ent. B Max Activity: chloride transport as % of triple combination control (Enteroid Assay B); for EC50: read-out: Ent. B EC50
Description: Base medium (ADF+++) consisted of Advanced DMEM/Ham's F12, 2 mM Glutamax, 10 mM HEPES, […] penicillin/streptomycin.
Intestinal enteroid maintenance medium (IEMM) consisted of ADF+++, 1× B27 supplement, 1× N2 supplement, 1.25 mM N-acetyl cysteine, 10 mM Nicotinamide, 50 ng/mL hEGF, 10 nM Gastrin, 1 μg/mL hR-spondin-1, 100 ng/mL hNoggin, TGF-b type 1 inhibitor A-83-01, 100 μg/mL Primocin, 10 μM P38 MAPK inhibitor SB202190.
Bath 1 Buffer consisted of 1 mM MgCl2, 160 mM NaCl, 4.5 mM KCl, 10 mM HEPES, 10 mM Glucose, 2 mM CaCl2).
Chloride Free Buffer consisted of 1 mM Magnesium Gluconate, 2 mM Calcium Gluconate, 4.5 mM Potassium Gluconate, 160 mM Sodium Gluconate, 10 mM HEPES, 10 mM Glucose.
BathI Dye Solution consisted of Bath 1 Buffer, 0.04% Pluronic F127, 20 μM Methyl Oxonol, 30 μM CaCCinh-A01, 30 μM Chicago Sky Blue.
Chloride Free Dye Solution consisted of Chloride Free Buffer, 0.04% Pluronic F127, 20 μM Methyl Oxonol, 30 μM CaCCinh-A01, 30 μM Chicago Sky Blue.
Chloride Free Dye Stimulation Solution consisted of Chloride Free Dye Solution, 10 μM forskolin, 100 μM IBMX, and 300 nM Compound III.
Human intestinal epithelial enteroid cells were obtained from the Hubrecht Institute for Developmental Biology and Stem Cell Research, Utrecht, The Netherlands and expanded in T-Flasks as previously described (Dekkers J F, Wiegerinck C L, de Jonge H R, Bronsveld I, Janssens H M, de Winter-de Groot K M, Brandsma A M, de Jong N W M, Bijvelds M J C, Scholte B J, Nieuwenhuis E E S, van den Brink S, Clevers H, van der Ent C K, Middendorp S and M Beekman J M. A functional CFTR assay using primary cystic fibrosis intestinal organoids. Nat Med. 2013 July;19(7):939-45.).
3. Enteroid Cell Harvesting and Seeding
Cells were recovered in cell recovery solution, collected by centrifugation at 650 rpm for 5 min at 4° C., resuspended in TrypLE and incubated for 5 min at 37° C. Cells were then collected by centrifugation at 650 rpm for 5 min at 4° C. and resuspended in IEMM containing 10 μM ROCK inhibitor (RI). The cell suspension was passed through a 40 μm cell strainer and resuspended at 1×10^6 cells/mL in IEMM containing 10 μM RI. Cells were seeded at 5000 cells/well into multi-well plates and incubated for overnight at 37° C., 95% humidity and 5% CO2 prior to assay.
5. Membrane Potential Dye, Enteroid Assay B
Enteroid cells were incubated with test compound in IEMM for 18-24 hours at 37° C., 95% humidity and 5% CO2. […] Briefly, cells were washed 5 times in Bath 1 Buffer. Bath 1 Dye Solution was added and the cells were incubated for 25 min at room temperature. Following dye incubation, cells were washed 3 times in Chloride Free Dye Solution. Chloride transport was initiated by addition of Chloride Free Dye Stimulation Solution and the fluorescence signal was read for 15 min. […] Chloride transport was then expressed as a percentage of the chloride transport following treatment with 1 μM (14S)-8-[3-(2-{Dispiro[2.0.2.1]heptan-7-yl}ethoxy)-1H-pyrazol-1-yl]-12,12-dimethyl-2λ^6-thia-3,9,11,18,23-pentaazatetracyclo[17.3.1.111,14.05,10]tetracosa-1(22),5,7,9,19(23),20-hexaene-2,2,4-trione, 3 μM (R)-1-(2,2-difluorobenzo[d][1,3]dioxol-5-yl)-N-(1-(2,3-dihydroxypropyl)-6-fluoro-2-(1-hydroxy-2-methylpropan-2-yl)-1H-indol-5-yl)cyclopropanecarboxamide and 300 nM acute N-[2,4-bis(1,1-dimethylethyl)-5-hydroxyphenyl]-1,4-dihydro-4-oxoquinoline-3-carboxamide triple combination control (% Activity).

[1] = Table 8, human enteroid cells, 18-24 hours, acute 10 μM forskolin and 300 nM ivacaftor

Chain of CFTR (P13569 with tags, fused parts or gaps DEL508-508): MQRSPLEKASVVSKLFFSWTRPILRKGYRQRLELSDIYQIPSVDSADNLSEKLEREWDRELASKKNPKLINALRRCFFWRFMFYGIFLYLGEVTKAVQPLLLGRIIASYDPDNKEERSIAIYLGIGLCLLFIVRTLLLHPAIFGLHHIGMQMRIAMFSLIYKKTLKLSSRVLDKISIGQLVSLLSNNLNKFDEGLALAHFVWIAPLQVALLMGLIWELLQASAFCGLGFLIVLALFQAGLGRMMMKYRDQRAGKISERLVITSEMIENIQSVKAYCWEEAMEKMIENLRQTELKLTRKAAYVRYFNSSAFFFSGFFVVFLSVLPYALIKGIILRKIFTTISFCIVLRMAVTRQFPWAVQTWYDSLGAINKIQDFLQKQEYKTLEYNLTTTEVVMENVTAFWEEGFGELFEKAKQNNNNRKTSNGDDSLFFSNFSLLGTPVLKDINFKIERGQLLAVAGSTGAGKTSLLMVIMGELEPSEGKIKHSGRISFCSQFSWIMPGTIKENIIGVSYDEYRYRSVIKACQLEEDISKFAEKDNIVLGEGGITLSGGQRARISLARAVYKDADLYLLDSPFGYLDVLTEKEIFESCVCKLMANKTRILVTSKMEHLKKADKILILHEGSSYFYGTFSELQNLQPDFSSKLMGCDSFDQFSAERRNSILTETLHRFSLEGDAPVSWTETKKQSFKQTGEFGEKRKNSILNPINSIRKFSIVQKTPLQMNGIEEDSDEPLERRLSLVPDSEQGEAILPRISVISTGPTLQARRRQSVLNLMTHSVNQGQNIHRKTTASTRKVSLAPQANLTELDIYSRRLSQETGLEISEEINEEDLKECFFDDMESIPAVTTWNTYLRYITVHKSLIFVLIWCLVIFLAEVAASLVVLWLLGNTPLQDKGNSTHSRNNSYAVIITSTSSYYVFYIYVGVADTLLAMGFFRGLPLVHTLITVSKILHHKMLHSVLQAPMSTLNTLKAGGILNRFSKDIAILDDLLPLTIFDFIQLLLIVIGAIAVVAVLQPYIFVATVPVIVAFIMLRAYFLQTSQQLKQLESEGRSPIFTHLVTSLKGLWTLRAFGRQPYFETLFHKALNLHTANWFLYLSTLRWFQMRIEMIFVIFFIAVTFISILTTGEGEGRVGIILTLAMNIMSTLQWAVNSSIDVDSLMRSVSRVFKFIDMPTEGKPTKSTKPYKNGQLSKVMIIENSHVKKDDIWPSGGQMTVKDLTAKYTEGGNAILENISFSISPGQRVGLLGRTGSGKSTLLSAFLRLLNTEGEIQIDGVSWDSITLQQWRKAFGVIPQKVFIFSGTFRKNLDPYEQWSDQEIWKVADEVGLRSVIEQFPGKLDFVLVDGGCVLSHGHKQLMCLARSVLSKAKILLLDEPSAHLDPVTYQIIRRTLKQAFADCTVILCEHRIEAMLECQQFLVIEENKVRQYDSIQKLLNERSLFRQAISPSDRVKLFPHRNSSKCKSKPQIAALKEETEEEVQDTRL

Structure (SMILES): Cc1cccc(C)c1-c1cc2nc(n1)NS(=O)(=O)c1cccc(c1)C(=O)N(CCCO)[C@H](CC(C)C)CO2 [Compound 96, (11R)-6-(2,6-Dimethylphenyl)-12-(3-hydroxypropyl)-11-(2-methylpropyl)-9-oxa-2λ^6-thia-3,5,12,19-tetraazatricyclo[12.3.1.14,8]nonadeca-1(18),4,6,8(19),14,16-hexaene-2,2,13-trione]
Ent. B Max Activity (Table 8): +++ (+++ is >60%)
EC50 [1]: < 1000 nM

Structure (SMILES): Cc1cccc(C)c1-c1cc2nc(n1)NS(=O)(=O)c1cccc(c1)C(=O)N(CCc1ccc(C(C)(C)O)cc1)[C@H](CC(C)(C)C)CO2 [Compound 108, (11R)-6-(2,6-Dimethylphenyl)-11-(2,2-dimethylpropyl)-12-[2-[4-(1-hydroxy-1-methyl-ethyl)phenyl]ethyl]-2,2-dioxo-9-oxa-2λ^6-thia-3,5,12,19-tetrazatricyclo[12.3.1.14,8]nonadeca-1(18),4(19),5,7,14,16-hexaen-13-one]
Ent. B Max Activity (%) (Table 9): +++ (+++ is >600%)
EC50 (Table 9): < 1000 nM

Structure (SMILES): Cc1cccc(C)c1-c1cc2nc(n1)NS(=O)(=O)c1cccc(c1)C(=O)N(Cc1ccc(C3CNCN3C)cc1)[C@H](CC(C)(C)C)CO2 (some centres unmarked) [Compound 316]
Ent. B Max Activity (%) (Table 9): +++ (+++ is >600%)

Structure (SMILES): Cc1cccc(C)c1-c1cc2nc(n1)NS(=O)(=O)c1cccc(c1)C(=O)N(Cc1ccc(-c3cn[nH]c3)cc1)[C@H](CC(C)(C)C)CO2 [Compound 317]
Ent. B Max Activity (%) (Table 9): +++ (+++ is >600%)
EC50 (Table 9): < 1000 nM

Structure (SMILES): Cc1cccc(C)c1-c1cc2nc(n1)NS(=O)(=O)c1cccc(c1)C(=O)N(Cc1ccc(-c3csc(OC(C)C)n3)cc1)[C@H](CC(C)(C)C)CO2 [Compound 318]
Ent. B Max Activity (%) (Table 9): +++ (+++ is >600%)
EC50 (Table 9): < 1000 nM

Structure (SMILES): Cc1cccc(C)c1-c1cc2nc(n1)NSc1cccc(c1)C(=O)N(Cc1ccc(C(C)(C)O)nc1)[C@H](CC(C)(C)C(F)(F)F)CO2 [Compound 320]
Ent. B Max Activity (%) (Table 9): +++ (+++ is >600%)
EC50 (Table 9): < 1000 nM

Structure (SMILES): Cc1cccc(C)c1-c1cc2nc(n1)NSc1cccc(c1)C(=O)N(Cc1ccc(C(C)(C)O)cc1)[C@H](CC(C)(C)C(F)(F)F)CO2 [Compound 321]
Ent. B Max Activity (%) (Table 9): +++ (+++ is >600%)
EC50 (Table 9): < 1000 nM

Structure (SMILES): Cc1cccc(C)c1-c1cc2nc(n1)NS(=O)(=O)c1cccc(c1)C(=O)N(C)CC(c1ccc(CC3(C(F)(F)F)CC3)cn1)O2 (centres unmarked) [Compound 336]
Ent. B Max Activity (Table 8): +++ (+++ is >60%)
EC50 [1]: < 1000 nM

Structure (SMILES): Cc1cccc(C)c1-c1cc2nc(n1)NS(=O)(=O)c1cccc(c1)C(=O)N(Cc1ncccc1C(C)(C)O)[C@H](CC(C)(C)C)CO2 [Compound 385]
Ent. B Max Activity (%) (Table 9): +++ (+++ is >600%)
EC50 (Table 9): < 1000 nM

Structure (SMILES): Cc1cccc(C)c1-c1cc2nc(n1)NS(=O)(=O)c1cccc(c1)C(=O)N(Cc1ncccc1N1CCOCC1)[C@H](CC(C)(C)C)CO2 [Compound 386]
Ent. B Max Activity (%) (Table 9): +++ (+++ is >600%)
EC50 (Table 9): < 1000 nM

Structure (SMILES): Cc1cccc(C)c1-c1cc2nc(n1)NS(=O)(=O)c1cccc(c1)C(=O)N(CCS(C)(=O)=O)[C@H](CC(C)C)CO2 [Compound 388]
Ent. B Max Activity (%) (Table 9): +++ (+++ is >600%)
EC50 (Table 9): < 1000 nM

Structure (SMILES): Cc1cccc(C)c1-c1cc2nc(n1)NS(=O)(=O)c1cccc(c1)C(=O)N(CCCS(C)(=O)=O)[C@H](CC(C)C)CO2 [Compound 389]
Ent. B Max Activity (%) (Table 9): +++ (+++ is >600%)
EC50 (Table 9): < 1000 nM

Structure (SMILES): CC(=O)Nc1cccc(CN2C(=O)c3cccc(c3)S(=O)(=O)Nc3nc(cc(-c4c(C)cccc4C)n3)OC[C@H]2CC(C)(C)C)n1 [Compound 391]
Ent. B Max Activity (%) (Table 9): +++ (+++ is >600%)
EC50 (Table 9): < 1000 nM

Structure (SMILES): Cc1cccc(C)c1-c1cc2nc(n1)NS(=O)(=O)c1cccc(c1)C(=O)N(Cc1ncccc1NC(=O)OC(C)C)[C@H](CC(C)(C)C)CO2 [Compound 392]
Ent. B Max Activity (%) (Table 9): +++ (+++ is >600%)
EC50 (Table 9): < 1000 nM

Structure (SMILES): CC(=O)Nc1cccnc1CN1C(=O)c2cccc(c2)S(=O)(=O)Nc2nc(cc(-c3c(C)cccc3C)n2)OC[C@H]1CC(C)(C)C [Compound 393]
Ent. B Max Activity (%) (Table 9): +++ (+++ is >600%)
EC50 (Table 9): < 1000 nM

Structure (SMILES): Cc1cccc(C)c1-c1cc2nc(n1)NS(=O)(=O)c1cccc(c1)C(=O)N(CCc1ccc(C(=O)N(C)C)cc1)[C@H](CC(C)(C)C)CO2 [Compound 394]
Ent. B Max Activity (Table 8): +++ (+++ is >60%)
EC50 [1]: < 1000 nM

Second part, the compound after the results:

Ent. B Max Activity (Table 8): +++ (+++ is >60%)
EC50 [1]: < 1000 nM
Structure (SMILES): Cc1cccc(C)c1-c1cc2nc(n1)NS(=O)(=O)c1cccc(c1)C(=O)N(CCCCC(C)(C)O)[C@H](CC(C)(C)C)CO2 [Compound 107, (11R)-6-(2,6-Dimethylphenyl)-11-(2,2-dimethylpropyl)-12-(5-hydroxy-5-methyl-hexyl)-2,2-dioxo-9-oxa-2λ^6-thia-3,5,12,19-tetrazatricyclo[12.3.1.14,8]nonadeca-1(18),4(19),5,7,14,16-hexaen-13-one]

Ent. B Max Activity (Table 8): +++ (+++ is >60%)
EC50 [1]: < 1000 nM
Structure (SMILES): Cc1cccc(C)c1-c1cc2nc(n1)NS(=O)(=O)c1cccc(c1)C(=O)N(Cc1ccccn1)[C@H](CC(C)(C)C)CO2 [Compound 124, (11R)-6-(2,6-Dimethylphenyl)-11-(2,2-dimethylpropyl)-12-[(pyridin-2-yl)methyl]-9-oxa-2λ^6-thia-3,5,12,19-tetraazatricyclo[12.3.1.14,8]nonadeca-1(17),4,6,8(19),14(18),15-hexaene-2,2,13-trione]

Ent. B Max Activity (%) (Table 9): +++ (+++ is >600%)
EC50 (Table 9): < 1000 nM
Structure (SMILES): Cc1cccc(C)c1-c1cc2nc(n1)NS(=O)(=O)c1cccc(c1)C(=O)N(Cc1cccc(N)n1)[C@H](CC(C)(C)C)CO2 [Compound 125, (11R)-12-[(6-Amino-2-pyridyl)methyl]-6-(2,6-dimethylphenyl)-11-(2,2-dimethylpropyl)-2,2-dioxo-9-oxa-2λ^6-thia-3,5,12,19-tetrazatricyclo[12.3.1.14,8]nonadeca-1(18),4(19),5,7,14,16-hexaen-13-one]

Ent. B Max Activity (%) (Table 9): + (+ is <300%)
EC50 (Table 9): 3000 to 30000 nM
Structure (SMILES): Cc1cccc(C)c1-c1cc2nc(n1)NS(=O)(=O)c1cccc(c1)C(=O)N(CC1CN(C(=O)CO)C1)[C@H](CC(C)(C)C)CO2 [Compound 319]

Ent. B Max Activity (Table 8): +++ (+++ is >60%)
EC50 [1]: < 1000 nM
Structure (SMILES): Cc1cccc(C)c1-c1cc2nc(n1)NS(=O)(=O)c1cccc(c1)C(=O)N(CCC(C)(C)C(C)(C)O)[C@H](CC(C)(C)C)CO2 [Compound 334]

Ent. B Max Activity (Table 8): +++ (+++ is >60%)
EC50 [1]: < 1000 nM
Structure (SMILES): Cc1cccc(C)c1-c1cc2nc(n1)NS(=O)(=O)c1cccc(c1)C(=O)N(C[C@H]1C[C@@H](C(C)(C)O)C1)[C@H](CC(C)(C)C)CO2 [Compound 335]

Ent. B Max Activity (%) (Table 9): +++ (+++ is >600%)
EC50 (Table 9): < 1000 nM
Structure (SMILES): Cc1cccc(C)c1-c1cc2nc(n1)NS(=O)(=O)c1cccc(c1)C(=O)N(Cc1ccc(N)nc1)[C@H](CC(C)(C)C)CO2 [Compound 387]

Ent. B Max Activity (%) (Table 9): +++ (+++ is >600%)
EC50 (Table 9): < 1000 nM
Structure (SMILES): Cc1cccc(C)c1-c1cc2nc(n1)NS(=O)(=O)c1cccc(c1)C(=O)N(Cc1ncccc1N)[C@H](CC(C)(C)C)CO2 [Compound 390]
